Patent USRE47351E1 (Gilead Sciences, Inc., priority 1999, dated 2019)
Read-outs that look alike come from different tables or passages of the source. Blank lines part the entries; values can stand above or below the compound they belong to.

What was measured:
A2A AdoR [1] = experiment: Coronary blood flow and reversal time in open-chest anesthetized pigs
Description: Farm pigs weighing 22-27 kg were used in this study.
Anesthesia was anesthetized with ketamine (20 mg/kg, i.m.) and sodium pentobarbital (15-18 mg/kg i.v.). Anesthesia was maintained with additional sodium pentobarbital (1.5-2 mg/kg, i.v.) every 15-20 minutes. Ventilation was maintained via a tracheotomy using a mixture of room air and 100% O2. Tidal volume, respiratory rate and fraction of O2 in inspired air were adjusted to maintain normal arterial blood gas (ABG) and pH values. […] Lactate Ringers solution was administered via an ear or femoral vein, at 5-7 ml/kg/min after a initial bolus of 300-400 ml. A catheter was inserted into the femoral artery to monitor arterial blood pressure and to obtain ABG samples.
The heart was exposed through a median stemotomy, and suspended in a pericardial cradle. Left ventricular pressure (LVP) was measured with a 5F high fidelity pressure sensitive tip transducer (Millar Instrunents, Houston, Tex.) placed in the left ventricular cavity via the apex and secured with a purse string suture. A segment of the left anterior descending coronary artery (LAD), proximal to the origin of the first diagonal branch, was dissected free of, surrounding tissue. A transit time perivascular flow probe (Transonic Systems Inc., Ithaca, N.Y.) was placed around this segment to measure coronary blood flow (CBF). Proximal to the flow probe a 24 g modified angiocatheter was inserted for intracoronary infusions. […] A2A AdoR agonists were dissolved in DMSO to produce stock concentrations of 1-5 mM, which were diluted in 0.9% saline and infused at rates of 1-1.5 ml/min. The A2A AdoR agonists were administered intracoronary. To maintain blood pressure constant, phenylephrine was administered intravenously. The phenylephrine stock solution (30 mM) was prepared in distilled water.
Prior to initiating the experiment, a 30-minute stabilization period followed the completion of all instrumentation. […] The time to recovery of 50% (t 0.5) and 90% (t0.9) of baseline CBF were recorded. Ten to 15 minutes after CBF returned to pre-drug values a second infusion with a different agonist was started. […] The effect of a maximum of three different agonists was determined in each experiment.

A1 AdoR [2] = target: A1 AdoR (Rattus norvegicus (Rat), UniProt P25099); experiment: A-V nodal conduction time (negative dromotropic effect) in rat isolated perfused hearts; settings: Compound 16 0.1-30 μM, CVT510 100-400 nM
Chain of A1 AdoR (Rattus norvegicus (Rat), UniProt P25099) (P25099 whole entry, the tested form may be a part): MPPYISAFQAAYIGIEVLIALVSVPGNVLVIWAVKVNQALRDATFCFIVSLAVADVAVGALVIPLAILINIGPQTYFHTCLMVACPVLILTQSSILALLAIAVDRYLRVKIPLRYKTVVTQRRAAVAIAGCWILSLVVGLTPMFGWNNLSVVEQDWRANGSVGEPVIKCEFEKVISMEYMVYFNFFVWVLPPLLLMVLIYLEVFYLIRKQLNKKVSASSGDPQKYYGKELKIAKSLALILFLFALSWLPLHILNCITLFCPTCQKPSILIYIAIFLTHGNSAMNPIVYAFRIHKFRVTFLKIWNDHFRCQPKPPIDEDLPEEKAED
Description: (§1) In experiments in which A1 adenosine receptor-mediated negative dromotropic effect was measured, atrial and ventricular surface electrograms were recorded during constant atrial pacing.
(§2) A1 adenosine receptor-mediated depression of A-V nodal conduction time (negative dromotropic effect) was measured. Atrial and ventricular surface electrograms in rats and His bundle electrogram in guinea pigs, were recorded during constant atrial pacing.
(§3) Hearts were instrumented for continuous recording of coronary perfusion pressure (A2A response) and atrioventricular (A-V) conduction time or S-H interval (A1 response).

A2A adenosine receptor = A2A adenosine receptor (Rattus norvegicus (Rat), UniProt P30543); experiment: Reversal time of coronary vasodilation in rat isolated perfused hearts; settings: bolus injection
Chain of A2A adenosine receptor (P30543 whole entry, the tested form may be a part): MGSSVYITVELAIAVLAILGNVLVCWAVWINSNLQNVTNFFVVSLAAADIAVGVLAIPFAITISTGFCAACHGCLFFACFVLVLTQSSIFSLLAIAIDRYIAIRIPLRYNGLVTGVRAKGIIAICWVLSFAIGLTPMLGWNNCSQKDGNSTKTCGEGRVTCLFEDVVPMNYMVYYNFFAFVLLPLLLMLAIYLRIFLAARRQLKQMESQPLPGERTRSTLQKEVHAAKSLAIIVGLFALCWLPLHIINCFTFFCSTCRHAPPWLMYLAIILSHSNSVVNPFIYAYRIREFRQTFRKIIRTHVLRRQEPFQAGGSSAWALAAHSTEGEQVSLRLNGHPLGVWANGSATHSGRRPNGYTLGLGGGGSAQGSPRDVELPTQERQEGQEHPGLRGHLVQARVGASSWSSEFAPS
Description: Adult Sprague Dawley rats of either sex weighing from 230 to 260 grams were used in this study. Animals were anesthetized by peritoneal injection of a cocktail containing ketamine and xylazine (ketamine 100 mg, xylazine 20 mg/ml). The chest was opened and the heart quickly removed. The heart was briefly rinsed in ice-cold Krebs-Henseleit solution (see below), and the aorta cannulated. […] The heart was electrically paced at a fixed cycle length of 340 ms (250 beats/min) using a bipolar electrode place on the left atrium. The electrical stimuli were generated by a Grass stimulator (Model S48, W. Warwick, R.I.) and delivered through a Stimuli Isolation Unit (Model SIU5, Astro-Med, Inc., N.Y.) as square-wave pulses of 3 msec in duration and amplitude of at least twice the threshold intensity.
Coronary perfusion pressure (CPP) was measured using a pressure transducer, connected to the aortic cannula via a T-connector positioned approximately 3 cm above the heart Coronary perfusion pressure was monitored throughout the experiment and recorded either on a chart recorder (Gould Recorder ^2200S) or a computerized recording system (PowerLab/4S, ADInstruments Pty Ltd, Australia). Only hearts with CPP ranging from 60 to 85 mmHg (in the absence of drugs) were used in the study.
Protocol A: Bolus injections. […] The times to 50% (t 0.5) and 90%/o (t 0.9) reversal of the decrease in CPP were measured. Each heart was exposed to a maximum of three vasodilators.
Protocol B: Continuous infusion. […] The times to 50% (t 0.5) and 90% (t 0.9) reversal of the decreases in CPP were measured from the time at which the infusion of the agonists was stopped. […] In addition, the duration of the injection was varied according to the volume of the boluses such as 10, 20 and 30 sec for 100, 200 and 300 μl boluses respectively. […] Boluses of various agonists were injected into the perfusion line of rat isolated perfused hearts (n=4 to 6 for each agonist) and the time to 90% (t0.9) reversal of the decrease in CPP measured.

A2A receptor = A2A receptor (Sus scrofa, UniProt K9IW67); experiment: A2A receptor affinity in pig striatum membrane prep (tritiated ZM 241385 displacement); type: binding
Chain of A2A receptor (K9IW67 1-409): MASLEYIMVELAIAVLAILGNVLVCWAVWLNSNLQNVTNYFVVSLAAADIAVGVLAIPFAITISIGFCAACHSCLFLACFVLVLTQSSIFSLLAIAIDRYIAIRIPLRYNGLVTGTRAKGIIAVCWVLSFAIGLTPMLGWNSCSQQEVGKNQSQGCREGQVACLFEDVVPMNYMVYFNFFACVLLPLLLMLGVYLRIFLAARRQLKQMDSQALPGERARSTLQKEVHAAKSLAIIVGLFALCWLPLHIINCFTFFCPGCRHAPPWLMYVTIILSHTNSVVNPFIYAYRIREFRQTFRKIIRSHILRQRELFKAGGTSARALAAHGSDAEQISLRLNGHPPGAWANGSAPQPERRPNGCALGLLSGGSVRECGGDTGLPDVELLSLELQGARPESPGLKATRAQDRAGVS
Description: Compounds of this invention were assayed to determine their affinity for the A2A receptor in a pig striatum membrane prep. […]. To the pig membranes was added 2 μL of serially diluted DMSO stock solution of the compounds of this invention at concentrations ranging from 10 nM to 100 microM or the control received 2 microL of DMSO alone, then the antagonist ZM 241385 in Tris buffer (50 mM, pH of 7.4) was added to achieve a final concentration of 2 nM. After incubation at 23° C. for 2 h, then the solutions were filtered using a membrane harvester using multiple washing of the membranes (3×). The filter disks were counted in scintillation cocktail to determine the amount of displacement of tritiated ZM displaced by the compounds of this invention. Greater than a 5 point curve was used to generate Ki's and the number of experiments is indicated in the column marked in Table 1 below.

human A2BAdoR = human A2BAdoR (Homo sapiens (Human), UniProt P29275); experiment: Competition for [3H]CPX binding sites on HEK-hA2BAdoR membranes; settings: compound at 10 μM
Chain of human A2BAdoR (P29275 whole entry): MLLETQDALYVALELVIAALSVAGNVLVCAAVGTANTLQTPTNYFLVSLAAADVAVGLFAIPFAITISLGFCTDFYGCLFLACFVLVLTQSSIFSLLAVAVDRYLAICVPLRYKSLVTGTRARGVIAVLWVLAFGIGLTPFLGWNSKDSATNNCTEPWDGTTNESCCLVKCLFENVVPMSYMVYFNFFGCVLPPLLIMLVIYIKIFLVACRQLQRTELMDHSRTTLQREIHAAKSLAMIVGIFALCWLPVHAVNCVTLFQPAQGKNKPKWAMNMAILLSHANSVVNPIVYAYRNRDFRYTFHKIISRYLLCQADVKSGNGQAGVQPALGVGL
Description: (§4) Cell culture and membrane preparation-PC12 cells were obtained from the American Type Culture Collection and grown in DMEM with 5% fetal bovine serum, 10% horse serum, 0.5 mmol/L L-glutamine, 100 U/mL penicillin, 0.1 mg/mL streptomycin, and 2.5 μg/mL amphotericin. HEK-293 cells stably expressing recombinant human A2BAdoRs (HEK-hA2BAdoR) were grown in DMEM supplemented with 10% fetal bovine serum and 0.5 mg/mL G-418. CHOK1 cells stably expressing the recombinant human A1AdoR (CHO-hA1AdoR) and A3AdoR (CHO-hA3AdoR) were grown as monolayers on 150-mm plastic culture dishes in Ham's F-12 media supplemented with 10% fetal bovine serum in the presence of 0.5 mg/mL G-418. Cells were cultured in an atmosphere of 5% CO2/95% air maintained at 37° C.
(§5) To make membranes, cells were detached from the culture plates into ice-cold 50 mmol/L Tris-HCl buffer (pH7.4). […] The protein concentration of membrane suspensions was determined using the Bradford method (Bio-Rad) with bovine serum as standards. […]
(§6) The affinity ([…]) of various CVT compounds for the A1 and A2A adenosine receptor were determined by their potency to compete for [^3H]CPX (A1) or [^3H]ZM241385 (A2A) binding sites on membranes derived from CHO-hA1AdoR, PC12 or HEK-HA2AAdoR cells. […] The affinity of selected compounds for A2B and A3 receptors were assessed by their potencies to compete for [^3H] […]

human A2AAdoR = human A2AAdoR (Homo sapiens (Human), UniProt P29274); settings: conclusion of Example 15
Chain of human A2AAdoR (P29274 whole entry): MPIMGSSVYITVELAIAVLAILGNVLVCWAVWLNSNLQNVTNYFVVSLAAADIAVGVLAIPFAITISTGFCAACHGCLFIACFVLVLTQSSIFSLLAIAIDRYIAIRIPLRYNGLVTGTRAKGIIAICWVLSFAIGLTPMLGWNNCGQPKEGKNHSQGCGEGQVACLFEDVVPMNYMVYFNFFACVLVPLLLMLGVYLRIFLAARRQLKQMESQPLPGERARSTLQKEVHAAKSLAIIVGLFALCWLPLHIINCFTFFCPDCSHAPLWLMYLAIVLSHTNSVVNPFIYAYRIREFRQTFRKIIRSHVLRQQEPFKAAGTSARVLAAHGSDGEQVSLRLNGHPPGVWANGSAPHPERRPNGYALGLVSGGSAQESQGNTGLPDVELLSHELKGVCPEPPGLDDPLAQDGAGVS
Description: Adenosine deaminase was purchased from Boehringer Mannheim Biochemicals Indianapolis, Id., U.S.A). [^3H]ZM241385 (Lot No. 1) was purchased from Tocris Cookson Ltd (Langford, Bristol, UK).
At the end of incubation, bound and free radioligands were separated by filtration through Whatman GF/C glass fiber filters using a Brandel tissue harvester (Gaithersburg, Md.). Triplicate determinations were performed for each concentration of the competing agent.
The affinity ([…]) of various CVT compounds for the A1 and A2A adenosine receptor were determined by their potency to compete for [^3H]CPX (A1) or [^3H]ZM241385 (A2A) binding sites on membranes derived from CHO-hA1AdoR, PC12 or HEK-HA2AAdoR cells. […] The affinity of selected compounds for A2B and A3 receptors were assessed by their potencies to compete for [^3H] […] ABMECA (A3) binding sites on membranes derived from HEK-hA2BAdoR and CHO-hA3AdoR cells, respectively.

human A3AdoR = human A3AdoR (Homo sapiens (Human), UniProt P0DMS8); experiment: Competition for [125I]ABMECA binding sites on CHO-hA3AdoR membranes; settings: compound at 10 μM
Chain of human A3AdoR (P0DMS8 whole entry): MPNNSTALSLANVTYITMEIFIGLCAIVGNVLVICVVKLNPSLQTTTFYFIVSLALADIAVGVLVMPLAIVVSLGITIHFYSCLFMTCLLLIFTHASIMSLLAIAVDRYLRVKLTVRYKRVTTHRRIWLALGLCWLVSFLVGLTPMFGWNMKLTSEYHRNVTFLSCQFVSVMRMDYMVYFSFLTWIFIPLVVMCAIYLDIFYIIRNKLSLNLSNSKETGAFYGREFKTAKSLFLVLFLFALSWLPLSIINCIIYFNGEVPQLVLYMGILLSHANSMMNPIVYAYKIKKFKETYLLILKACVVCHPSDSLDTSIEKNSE
Description: as §4, §5, §6

A1 AdoR [3] = target: A1 AdoR (Cavia porcellus (Guinea pig), UniProt P47745)
Chain of A1 AdoR (Cavia porcellus (Guinea pig), UniProt P47745) (P47745 whole entry): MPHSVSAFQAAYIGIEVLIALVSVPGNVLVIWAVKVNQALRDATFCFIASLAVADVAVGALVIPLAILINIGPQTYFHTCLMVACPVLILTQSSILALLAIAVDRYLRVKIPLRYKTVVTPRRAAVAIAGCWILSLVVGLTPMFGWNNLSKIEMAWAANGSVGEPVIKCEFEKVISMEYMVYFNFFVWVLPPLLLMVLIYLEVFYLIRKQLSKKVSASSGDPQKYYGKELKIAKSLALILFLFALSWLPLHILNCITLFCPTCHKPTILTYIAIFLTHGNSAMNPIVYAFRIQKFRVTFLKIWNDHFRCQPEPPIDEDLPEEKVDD
Description: as §1, §2, §3

A2A AdoR [4] = target: A2A AdoR (Rattus norvegicus (Rat), UniProt P30543)
Chain of A2A AdoR (Rattus norvegicus (Rat), UniProt P30543) (P30543 whole entry): as the sequence (P30543 whole entry, the tested form may be a part) above
Text: as §3

A2A AdoR [5] = target: A2A AdoR (Cavia porcellus (Guinea pig), UniProt P46616)
Chain of A2A AdoR (Cavia porcellus (Guinea pig), UniProt P46616) (P46616 whole entry): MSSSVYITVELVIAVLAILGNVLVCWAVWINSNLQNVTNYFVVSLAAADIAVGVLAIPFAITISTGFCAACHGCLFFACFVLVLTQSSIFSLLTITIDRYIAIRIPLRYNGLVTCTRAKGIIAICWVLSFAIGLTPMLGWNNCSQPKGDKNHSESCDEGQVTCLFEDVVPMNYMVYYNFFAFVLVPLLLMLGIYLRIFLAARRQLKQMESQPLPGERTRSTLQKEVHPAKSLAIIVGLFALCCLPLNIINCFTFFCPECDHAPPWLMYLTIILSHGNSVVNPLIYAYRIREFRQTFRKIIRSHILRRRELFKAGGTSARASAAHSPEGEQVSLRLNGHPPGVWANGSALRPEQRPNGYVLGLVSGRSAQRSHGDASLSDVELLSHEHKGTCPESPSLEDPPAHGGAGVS
Text: as §3

human A1AdoR = human A1AdoR (Homo sapiens (Human), UniProt P30542); experiment: Competition binding, [3H]DPCPX/[3H]CPX sites on CHO-hA1AdoR cell membranes; settings: in presence of Gpp(NH)p 100 μM
Chain of human A1AdoR (P30542 whole entry): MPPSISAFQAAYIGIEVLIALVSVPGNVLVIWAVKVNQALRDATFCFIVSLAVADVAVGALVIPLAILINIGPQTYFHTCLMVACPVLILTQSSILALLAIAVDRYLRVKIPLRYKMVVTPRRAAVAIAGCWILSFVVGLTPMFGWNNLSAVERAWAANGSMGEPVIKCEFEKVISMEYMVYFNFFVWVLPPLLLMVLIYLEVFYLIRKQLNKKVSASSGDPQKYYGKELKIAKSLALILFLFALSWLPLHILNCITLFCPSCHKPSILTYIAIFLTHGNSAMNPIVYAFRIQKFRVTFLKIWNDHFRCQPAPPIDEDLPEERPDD

[6] = pig striatal membranes, displacement of tritiated ZM 241385 (2 nM), 23° C. 2 h; read-out: A2a Ki

SMILES: CCNC(=O)[C@H]1O[C@@H](n2cnc3c(N)nc(NCCc4ccc(CCC(=O)O)cc4)nc32)[C@H](O)[C@@H]1O [CGS21680]
t 0.5 (min), time to 50% reversal of the increase in coronary blood flow (A2A AdoR [1]; 2 μg/kg/min): 9.7 ± 0.8 min
t 0.9 (min), time to 90% reversal of the increase in coronary blood flow (A2A AdoR [1]; 2 μg/kg/min): 21.4 ± 0.8 min

SMILES: OC[C@H]1O[C@@H](n2cnc3c(N[C@@H]4CCOC4)ncnc32)[C@H](O)[C@@H]1O [CVT510, 2-{6-[((3R)oxolan-3-yl)amino]purin-9-yl}(4S,3R,5R)-(hydroxymethyl)oxolane-3,4-diol, reference compound]
Effect on A-V nodal conduction time (A1 AdoR [2]): significantly prolonged

SMILES: CCOC(=O)c1cnn(-c2nc(N)c3ncn([C@@H]4O[C@H](CO)[C@@H](O)[C@H]4O)c3n2)c1 [Compound 12, Ethyl 1-{9-[(4S,2R,3R,5R)-3,4-dihydroxy-5-(hydroxymethyl)oxolan-2-yl]-6-aminopurin-2-yl}pyrazole-4-carboxylate]
t 0.5 (min), time to 50% reversal of the increase in coronary conductance (A2A adenosine receptor): 14.83 ± 2.1 min
t 0.9 (min), time to 90% reversal of the increase in coronary conductance (A2A adenosine receptor): 15.0 ± 0.8 min
Ki (A2A receptor; [6]): 10 to 1000 nM

SMILES: CNC(=O)c1cnn(-c2nc(N)c3ncn(C4O[C@H](CO)[C@@H](O)[C@H]4O)c3n2)c1 (stereo partly drawn) [Compound 16, (1-{9-[(4S,2R,3R,5R)-3,4-dihydroxy-5-(bydroxymethyl)oxolan-2-yl]-6-aminopurin-2-yl}pyrazol-4-yl)-N-methylcarboxamide]
Decrease of specific binding of [3H]CPX (HEK-hA2BAdoR) (human A2BAdoR): 20%
A2A affinity in words (human A2AAdoR): low affinity A2A agonist
Decrease of specific binding of [125I]IBMECA (CHO-hA3AdoR) (human A3AdoR): 22%
EC50 (A1 AdoR [3]): 4000 ± 2300 nM
Effect on A-V nodal conduction time (A1 AdoR [2]): did not prolong
EC50 (A2A AdoR [4]): 6.4 ± 0.6 nM
EC50 (A2A AdoR [5]): 18.6 ± 6 nM
Ki (A2A receptor; read-out: A2a Ki; pig striatal membranes, displacement of tritiated ZM 241385 (2 nM), 23° C. 2 h): 1000 to 10000 nM
Ki (human A1AdoR; read-out: Binding Affinity Ki, CHO-hA1AR): > 16500 nM
Ki (human A1AdoR; read-out: Binding Affinity pKi ± SEM, CHO-hA1AR (converted)): 25700 nM

SMILES: Nc1nc(-n2cc(C(=O)O)cn2)nc2c1ncn2[C@@H]1O[C@H](CO)[C@@H](O)[C@H]1O [Compound 17, 1-{9-[(4S,2R,3R,5R)-3,4-dihydroxy-5-(hydroxymethyl)oxolan-2-yl]-6-aminopurin-2-yl}pyrazole-4-carboxylic acid]
Ki (A2A receptor; [6]): > 100000 nM

SMILES: CN(C)C(=O)c1cnn(-c2nc(N)c3ncn([C@@H]4O[C@H](CO)[C@@H](O)[C@H]4O)c3n2)c1 [Compound 18, (1-{9-[(4S,2R,3R,5R)-3,4-dihydroxy-5-(hydroxymethyl)oxolan-2-yl]-6-aminopurin-2-yl}pyrazol-4-yl)-N,N-dimethylcarboxamide]
Ki (A2A receptor; [6]): 10 to 1000 nM

SMILES: CCNC(=O)c1cnn(-c2nc(N)c3ncn(C4O[C@H](CO)[C@@H](O)[C@H]4O)c3n2)c1 (stereo partly drawn) [Compound 19, (1-{9-[(4S,2R,3R,5R)-3,4-dihydroxy-5-(hydrozymethyl)oxolan-2-yl]-6-aminopurin-2-yl}pyrazol-4-yl)-N-ethylcarboxamide]
Ki (A2A receptor; [6]): 10 to 1000 nM

SMILES: CCCCC#Cc1nc(N)c2ncn([C@@H]3O[C@H](C(=O)NCC)[C@@H](O)[C@H]3O)c2n1 [HENECA, N-ethyl-1′-deoxy-1′-(6-amino-2-hexynyl-9H-purin9-yl)-beta-D-ribofuranuronamide]
t 0.5 (min), time to 50% reversal of the increase in coronary conductance (A2A adenosine receptor): 28.6 ± 1.1 min
t 0.9 (min), time to 90% reversal of the increase in coronary conductance (A2A adenosine receptor): 32.8 ± 3.1 min

SMILES: Nc1nc(N/N=C/C2CCCCC2)nc2c1ncn2[C@@H]1O[C@H](CO)[C@@H](O)[C@H]1O [WRC-0470, 2-cyclohexylmethylidenehydrazino-adenosine]
t 0.5 (min), time to 50% reversal of the increase in coronary blood flow (A2A AdoR [1]; 1 μg/kg/min): 9.5 ± 0.8 min
t 0.9 (min), time to 90% reversal of the increase in coronary blood flow (A2A AdoR [1]; 1 μg/kg/min): 22.5 ± 1.6 min

SMILES: CCCCCCC#Cc1nc(N)c2ncn([C@@H]3O[C@H](CO)[C@@H](O)[C@H]3O)c2n1 [YT-146, 2-alkynyladenosine]
t 0.5 (min), time to 50% reversal of the increase in coronary blood flow (A2A AdoR [1]; 1 μg/kg/min): 17.8 ± 3.4 min
t 0.9 (min), time to 90% reversal of the increase in coronary blood flow (A2A AdoR [1]; 1 μg/kg/min): 32.9 ± 5.6 min
CBF (“Fold Increase”) (A2A AdoR [1]; 1 μg/kg/min intracoronary infusion): 3.44 ± 0.47 fold
t 0.5 (min), time to 50% reversal of the increase in coronary conductance (A2A adenosine receptor): 17.7 ± 1.0 min
t 0.9 (min), time to 90% reversal of the increase in coronary conductance (A2A adenosine receptor): 28.5 ± 4.0 min

Now from value to compound:

Ki (A2A receptor; [6]): 1000 to 10000 nM
SMILES: COc1ccc(-c2cnn(-c3nc(N)c4ncn(C5O[C@H](CO)[C@@H](O)[C@H]5O)c4n3)c2)cc1 (stereo partly drawn) [Compound 14, (4S,2R,3R,5R)-2-{6-Amino-2-[4-(4-metboxyphenyl)pyrazolyl]purin-9-yl}-5-(hydroxymethyl)oxolane-3,4-diol]

Ki (A2A receptor; [6]): 1000 to 10000 nM
SMILES: Cc1ccc(-c2cnn(-c3nc(N)c4ncn(C5O[C@H](CO)[C@@H](O)[C@H]5O)c4n3)c2)cc1 (stereo partly drawn) [Compound 15]

Ki (A2A receptor; [6]): 10 to 1000 nM
SMILES: NC(=O)c1cnn(-c2nc(N)c3ncn([C@@H]4O[C@H](CO)[C@@H](O)[C@H]4O)c3n2)c1 [Compound 20, 1-{9-[(4S,2R,3R,5R)-3,4-dihydroxy-5-(hydroxymethyl)oxolan-2-yl]-6-aminopurin-2-yl}pyrazole-4-carboxamide]

Ki (A2A receptor; [6]): 10 to 1000 nM
SMILES: Nc1nc(-n2cc(C(=O)NC3CCCC3)cn2)nc2c1ncn2[C@@H]1O[C@H](CO)[C@@H](O)[C@H]1O [Compound 21, (1-{9-[(4S,2R,3R,5R)-3,4-dihydroxy-5-(hydroxymethyl)oxolan-2-yl]-6-aminopurin-2-yl}pyrazol-4-yl)-N-(cyclopentyl)carboxamide]

Ki (A2A receptor; [6]): 10 to 1000 nM
SMILES: Nc1nc(-n2cc(C(=O)NCc3ccc(Cl)cc3)cn2)nc2c1ncn2[C@@H]1O[C@H](CO)[C@@H](O)[C@H]1O [Compound 22, (1-{9-[(4S,2R,3R,5R)-3,4-dihydroxy-5-(hydroxymethyl)oxolan-2-yl]-6-aminopurin-2yl}pyrazol-4yl)-N-[(4-chlorophenyl)methyl]carboxamide]
